In assay [1] the test system is 4T1 murine breast cancer cells. Put plainly: 4T1 cancer model, TY22404 with ADG106. Type of assay: in vivo, mice. The conditions noted are these: Day 33; 5 mg/kg TY22404 and/or ADG106 i.p. biweekly, four doses. As for the experimental part: Mice were inoculated subcutaneously with 4T1 murine breast cancer cells. […] Intraperitoneal administration of Vehicle, 5 mg/kg TY22404 or ADG106, or combination of these two agents, was initiated on a biweekly schedule for four doses.

The test system of assay [2] is MC38 murine colon tumor cells. The assay is described as follows: MC38 colon cancer model, ADG106 with TY21580 (FIGS. 13A-13B). Type of assay: in vivo, mice. To be noted: Day 33; ADG106 10 mg/kg alone. As for the experimental part: Mice were inoculated subcutaneously with MC38 murine colon tumor cells. […] These groups received either 10 mg/kg isotype control, 10 mg/kg ADG106, 0.2 or 2 mg/kg TY21580, or a combination of ADG106 and TY21580 at the same doses by IP injection. All antibodies were dosed twice a week for 4 weeks. […] No adverse effects were observed on body weights with these treatments.

For assay [3], the system named is MC38 murine colon tumor cells. Put plainly: MC38 cancer model, TY22404 with ADG106. The format is in vivo, mice. The conditions noted are these: Day 27 post tumor cell inoculation; 5 mg/kg each, i.p. biweekly four doses. As for the experimental part:
FIG. 25 provides the results of TY22404 administered in combination with ADG106 antibody in the MC38 cancer model to assess in vivo antitumor efficacy of the combination treatment. Mice were inoculated subcutaneously with MC38 murine colon tumor cells. […] Intraperitoneal administration of test antibodies was initiated on a biweekly schedule for four doses. Tumor growth inhibition (TGI) relative to the isotype control group was evaluated on Day 27 post tumor cell inoculation.

The test system of a further assay is 4T1 breast cancer cells. The assay is described as follows: 4T1 breast cancer model, ADG106 with TY21580. Type of assay: in vivo, BALB/c mice. To be noted: TY21580 2 mg/kg, ADG106 5 mg/kg, i.p. twice a week for 2 weeks.
The test system of assay [4] is EMT6 murine breast cancer cells. The assay is described as follows: EMT6 cancer model, ADG106 with TY21580. The format is in vivo, mice. To be noted: ADG106 0.5 mg/kg, TY21580 0.1 mg/kg, i.p. biweekly. As for the experimental part:
FIGS. 19A-19B provide the results of ADG106 administered in combination with TY21580 in the EMT6 cancer model to assess in vivo antitumor efficacy of ADG106 and TY21580 combination treatment. Mice were inoculated subcutaneously with EMT6 murine breast cancer cells. […] Intraperitoneal administration of 0.5 mg/kg ADG106 or 0.1 mg/kg TY21580, or combination of these two agents, was initiated on a biweekly schedule.

The test system of assay [5] is CT26 murine colon tumor cells. Put plainly: CT26 colon cancer model, ADG106 with TY21580 (FIGS. 12A-12B). To be noted: Day 19; ADG106 0.2 mg/kg and/or TY21580 0.2 mg/kg, IP twice a week. Type of assay: in vivo, mice. As for the experimental part:
FIGS. 12A-12B provide the results of ADG106 administered in combination with TY21580 in the mouse CT26 colon cancer model to assess in vivo antitumor efficacy of ADG106 and TY21580 combination treatment. Mice were inoculated subcutaneously with CT26 murine colon tumor cells. […] These groups received either 1 mg/kg isotype control, 0.2 mg/kg ADG106, 0.2 or 1 mg/kg TY21580, or a combination of ADG106 and TY21580 at the same doses by IP injection. All antibodies were dosed twice a week.

Assay [6] relates to A20 murine B lymphoma cells. Put plainly: A20 cancer model, ADG106 with TY21580. To be noted: ADG106 5 mg/kg, TY21580 0.5 mg/kg, i.p. biweekly, 4 doses. The format is in vivo, mice. As for the experimental part:
FIGS. 18A-18B provide the results of ADG106 administered in combination with TY21580 in the A20 cancer model to assess in vivo antitumor efficacy of ADG106 and TY21580 combination treatment. Mice were inoculated subcutaneously with A20 murine B lymphoma cells. […] Intraperitoneal administration of 5 mg/kg ADG106 or 0.5 mg/kg TY21580, or combination of these two agents, was initiated on a biweekly schedule for 4 doses.

For assay [7], the system named is B16F10 murine melanoma tumor cells. Put plainly: B16F10 melanoma model, ADG106 with TY21580 (FIG. 17). To be noted: 5 mg/kg each, IP twice a week from tumor inoculation. Type of assay: in vivo, mice. As for the experimental part:
All antibodies were dosed twice a week.

Another assay concerns 4T1 cancer model. To be noted: Day 35; TY21580 2 mg/kg i.p. biweekly four doses, Docetaxel 10 mg/kg i.v. weekly 3 doses.
Another assay has as its system CT26 cancer model. Put plainly: CT26 cancer model, TY21580 with Fruquintinib. Type of assay: in vivo, mice. As for the experimental part:
Dosing started when average tumor volume reached about 120 mm^3 (n=8 per group). […] Fruquintinib at 5 mg/kg was p.o. dosed daily for 3 weeks.

In assay [8] the test system is EMT6 murine breast cancer cells. The assay is described as follows: EMT6 cancer model, TY21580 with Olaparib. The conditions noted are these: Olaparib 50 mg/kg p.o. daily for 21 doses. The format is in vivo, mice. As for the experimental part:
Mice were inoculated subcutaneously with EMT6 murine breast cancer cells. […] Intraperitoneal administration of TY21580 at 0.1 mg/kg was initiated on a biweekly schedule. Olaparib at 50 mg/kg was p.o. dosed daily for 21 doses.

Assay [9] has as its system Renca murine kidney cancer cells. Put plainly: Renca cancer model, TY21580 with Anlotinib. Type of assay: in vivo, mice. As for the experimental part: Mice were inoculated subcutaneously with Renca murine kidney cancer cells. […] Anlotinib at 3 mg/kg was p.o. dosed daily for 17 doses.

As for “ADG106: anti-CD137 antibody, heavy chain SEQ ID NO: 240, light chain SEQ ID NO: 241”, the “TGI vs vehicle control” value in assay [1] was found to be 10%. Besides, in assay [2], the “tumor growth inhibition, in words” value is on record as “did not inhibit tumor growth”. Further, in [3], the “Tumor growth inhibition (TGI) relative to isotype control” value turned out to be 21%. The “anti-tumor activity vs isotype control, in words” value in the assay with 4T1 breast cancer cells is reported as “showed anti-tumor activity”. The “antitumor activity vs vehicle control, in words” value in assay [4] was “significant antitumor activity”; in assay [6], “partial antitumor activity”. Moreover, in [5], the “TGI vs isotype control” value was found to be 47%. Also, the “antitumor activity vs isotype control, in words” value in assay [7] is listed as “did not inhibit tumor growth”.

Take `CC(=O)O[C@@]12CO[C@@H]1C[C@H](O)[C@@]1(C)C(=O)[C@H](O)C3=C(C)[C@@H](OC(=O)[C@H](O)[C@@H](NC(=O)OC(C)(C)C)c4ccccc4)C[C@@](O)([C@@H](OC(=O)c4ccccc4)[C@H]21)C3(C)C` [Docetaxel, reference compound]: the “TGI vs vehicle control” value with 4T1 cancer model was 38.3%.

Consider `CNC(=O)c1c(C)oc2cc(Oc3ncnc4cc(OC)c(OC)cc34)ccc12` [Fruquintinib, reference compound], for which the “antitumor activity vs isotype control, in words” value in the assay with CT26 cancer model (TY21580 0.1 mg/kg i.p. biweekly four doses, Fruquintinib 5 mg/kg p.o. daily for 3 weeks) is listed as “partial antitumor activity”. Besides, the “complete response (CR)” value in the assay with CT26 cancer model (TY21580 0.1 mg/kg, Fruquintinib 5 mg/kg, n=8 per group) is reported as “no complete response”.

Regarding `O=C(c1cc(Cc2n[nH]c(=O)c3ccccc23)ccc1F)N1CCN(C(=O)C2CC2)CC1` [Olaparib, reference compound], in assay [8], the “antitumor effect vs vehicle control, in words” value was “no significant antitumor effect”.

For the compound `COc1cc2c(Oc3ccc4[nH]c(C)cc4c3F)ccnc2cc1OCC1(N)CC1` [Anlotinib], the “TGI vs vehicle control” value in [9] (Day 29, Anlotinib 3 mg/kg p.o. daily for 17 doses) was 93%. In addition, in assay [9] (TY21580 5 mg/kg i.p. biweekly four doses, Anlotinib 3 mg/kg p.o. daily), the “antitumor effect vs vehicle control, in words” value was “strong antitumor activity”.

The record behind these values is US20240209092A1, “COMBINATION THERAPIES FOR TREATING CANCER” (ADAGENE INC., priority 2021, published 2024).
